Results as given in ChEMBL document CHEMBL3774316, “Design, synthesis and anti-HIV-1 evaluation of hydrazide-based peptidomimetics as selective gelatinase inhibitors” (Bioorg Med Chem, 2016).

What was measured:
[1] = Therapeutic index, ratio of CC50 for human C8166 cells to EC50 for HIV1 3B infected in human C8166 cells; assay type: cell-based; settings: read-out: Ratio CC50/EC50
C8166 = experiment: Cytotoxicity against human C8166 cells after 72 hrs by MTT assay; assay type: functional; settings: C8166, 72 h
[2] = system: Human immunodeficiency virus 1; experiment: Antiviral activity against HIV1 3B infected in human C8166 cells assessed as cytopathic effect by counting the number of syncytia by microscopy; assay type: functional, organism-based; settings: Human immunodeficiency virus 1, 3B
Aminopeptidase N = molecular target: T1, Aminopeptidase N (Sus scrofa, UniProt P15145); experiment: Inhibition of porcine microsomal aminopeptidase N preincubated for 30 mins using L-Leu-p-nitroanilide as substrate by UV-VIS spectrophotometer
T1 sequence (P15145 whole entry): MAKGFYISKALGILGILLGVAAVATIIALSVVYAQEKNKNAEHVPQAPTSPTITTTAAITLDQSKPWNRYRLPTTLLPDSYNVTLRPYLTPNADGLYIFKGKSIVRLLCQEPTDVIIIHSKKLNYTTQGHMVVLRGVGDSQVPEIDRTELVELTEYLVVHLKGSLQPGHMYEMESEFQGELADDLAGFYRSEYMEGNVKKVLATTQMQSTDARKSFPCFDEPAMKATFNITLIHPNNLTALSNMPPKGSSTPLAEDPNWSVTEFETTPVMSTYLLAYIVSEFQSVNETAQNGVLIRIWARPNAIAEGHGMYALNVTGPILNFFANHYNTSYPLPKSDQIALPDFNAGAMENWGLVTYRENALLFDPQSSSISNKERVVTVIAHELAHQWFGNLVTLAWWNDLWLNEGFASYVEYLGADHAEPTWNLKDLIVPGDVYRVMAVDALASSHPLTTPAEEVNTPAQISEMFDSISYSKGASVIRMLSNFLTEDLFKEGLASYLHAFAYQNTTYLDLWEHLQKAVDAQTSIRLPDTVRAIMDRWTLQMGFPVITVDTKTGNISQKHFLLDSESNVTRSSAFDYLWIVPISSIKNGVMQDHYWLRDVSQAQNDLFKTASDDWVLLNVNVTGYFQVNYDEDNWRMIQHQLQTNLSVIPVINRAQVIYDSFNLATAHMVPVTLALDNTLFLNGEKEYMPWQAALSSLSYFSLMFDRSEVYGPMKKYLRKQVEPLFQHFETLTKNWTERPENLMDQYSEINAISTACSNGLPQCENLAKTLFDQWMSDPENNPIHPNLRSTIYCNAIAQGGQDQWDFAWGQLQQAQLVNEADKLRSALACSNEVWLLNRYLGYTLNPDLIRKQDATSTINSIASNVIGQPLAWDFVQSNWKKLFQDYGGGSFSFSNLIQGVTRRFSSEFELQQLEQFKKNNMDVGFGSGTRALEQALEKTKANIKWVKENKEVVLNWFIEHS

[3] = molecular target: 72 kDa type IV collagenase (Homo sapiens, UniProt P08253); experiment: Inhibition of gelatinase A (unknown origin) after 30 mins using succinylated gelatin as substrate
Chain of 72 kDa type IV collagenase (P08253 whole entry): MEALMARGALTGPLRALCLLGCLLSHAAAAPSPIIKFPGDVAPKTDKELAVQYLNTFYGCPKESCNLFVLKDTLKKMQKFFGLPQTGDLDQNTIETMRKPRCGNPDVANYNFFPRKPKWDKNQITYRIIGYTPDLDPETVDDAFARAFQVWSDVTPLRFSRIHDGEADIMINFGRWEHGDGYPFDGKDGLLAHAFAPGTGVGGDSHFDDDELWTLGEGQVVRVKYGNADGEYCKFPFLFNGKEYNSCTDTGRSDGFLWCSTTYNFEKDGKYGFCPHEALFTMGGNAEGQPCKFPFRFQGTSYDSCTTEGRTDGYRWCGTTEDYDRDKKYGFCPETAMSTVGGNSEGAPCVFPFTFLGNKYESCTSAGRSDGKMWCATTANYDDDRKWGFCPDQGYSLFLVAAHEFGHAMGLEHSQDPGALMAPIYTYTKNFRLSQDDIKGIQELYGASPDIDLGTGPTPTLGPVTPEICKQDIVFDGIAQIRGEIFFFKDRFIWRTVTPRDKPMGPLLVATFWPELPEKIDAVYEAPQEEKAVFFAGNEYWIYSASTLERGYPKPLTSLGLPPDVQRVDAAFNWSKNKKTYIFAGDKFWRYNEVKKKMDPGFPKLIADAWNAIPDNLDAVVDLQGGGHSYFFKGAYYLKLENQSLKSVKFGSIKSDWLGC

[4] = system: Human immunodeficiency virus 1; experiment: Antiviral activity against HIV1 A17 infected in human C8166 cells assessed as reduction in p24 antigen level incubated for 4 hrs followed by cell plating for 72 hrs by ELISA method; assay type: functional, organism-based; settings: Human immunodeficiency virus 1, A17, C8166
[5] = system: Human immunodeficiency virus 1; experiment: Antiviral activity against HIV1 74V infected in human C8166 cells assessed as reduction in p24 antigen level incubated for 4 hrs followed by cell plating for 72 hrs by ELISA method; assay type: functional, organism-based; settings: Human immunodeficiency virus 1, 74V
[6] = system: Human immunodeficiency virus 1; experiment: Antiviral activity against HIV1 3B infected in human C8166 cells assessed as reduction in p24 antigen level incubated for 2 hrs followed by cell plating for 72 hrs by ELISA method; assay type: functional, organism-based; settings: Human immunodeficiency virus 1, 3B

SMILES | selectivity ratio [1] | CC50 (C8166) [µM] | EC50 [2] [µM] | IC50 (Aminopeptidase N) [µM] | IC50 [3] [µM] | EC50 [4] [µM] | EC50 [5] [µM] | EC50 [6] [µM]
Cc1ccc(S(=O)(=O)N2CC3(C[C@H]2C(=O)NN)SCCS3)cc1 | > 2.2 | > 519 | 239 | > 1000 |  |  |  | 
C/C(=N\NC(=O)Cn1c(=O)c(C)nc2ccccc21)c1ccc(Cl)cc1 |  | > 543 | > 543 | 125 | 13.2 |  |  | 
CC(=O)NNC(=O)Cn1c(=O)c(C)nc2ccccc21 |  | > 730 | > 730 | 328 | > 500 |  |  | 
Cc1nc2ccccc2n(CC(=O)N/N=C/c2ccc(Cl)cc2)c1=O | > 17.5 | > 565 | 32.2 | 449 | 81 |  |  | 
COc1ccccc1/C=N/NC(=O)[C@@H]1CC2(CN1S(=O)(=O)c1ccc(C)cc1)SCCS2 | 7.6 | 388 | 51.1 | > 1000 | 28.5 | 11.4 | 30 | 69.6
Cc1ccc(/C=N/NC(=O)[C@@H]2CC3(CN2S(=O)(=O)c2ccc(C)cc2)SCCS3)cc1 | > 10.4 | > 421 | 40.5 | > 1000 | 36.8 | > 200 | > 200 | 39.3
COc1ccc(/C=N/NC(=O)Cn2c(=O)c(C)nc3ccccc32)c(OC)c1 | > 4.2 | > 526 | 126 | 243 | 74.9 |  |  | 
COc1cccc(/C=N/NC(=O)Cn2c(=O)c(C)nc3ccccc32)c1O | 41.3 | 115 | 2.79 | 80.9 | 7.17 | 2.46 | 3.48 | 6.05
Cc1nc2ccccc2n(CC(=O)NNC(=O)c2ccc(Cl)cc2)c1=O | > 3.2 | > 540 | 169 | 272 | 34.8 |  |  | 
Cc1nc2ccccc2n(CC(=O)N/N=C/Cc2ccccc2)c1=O | > 7.2 | > 599 | 82.8 | 223 | 36 |  |  | 
Cc1ccc(/C=N/NC(=O)Cn2c(=O)c(C)nc3ccccc32)cc1 | 5.1 | 262 | 51.3 | 307 | 38.6 |  |  | 
COc1ccc(/C=N/NC(=O)Cn2c(=O)c(C)nc3ccccc32)cc1OC | > 6.5 | > 526 | 81 | 481 | 28.8 |  |  | 
Cc1nc2ccccc2n(CC(=O)NNC(=O)Cc2ccccc2)c1=O | > 1.9 | > 571 | 296 | 333 | 159 |  |  | 
C/C(=N\NC(=O)Cn1c(=O)c(C)nc2ccccc21)c1ccc([N+](=O)[O-])cc1 | > 3.6 | > 528 | 145 | 389 | 90.8 |  |  | 
C/C(=N\NC(=O)Cn1c(=O)c(C)nc2ccccc21)c1ccccc1Cl |  | > 543 | > 543 | 439 | 112 |  |  | 
Cc1ccc(S(=O)(=O)N2CC3(C[C@H]2C(=O)N/N=C/c2ccccc2[N+](=O)[O-])SCCS3)cc1 | 1.9 | 65 | 32.9 | > 1000 | 0.24 |  |  | 
Cc1ccc(S(=O)(=O)N2CC3(C[C@H]2C(=O)N/N=C/c2ccccc2F)SCCS3)cc1 | 7.2 | 280 | 38.8 | > 1000 | 1.89 |  |  | 
Cc1nc2ccccc2n(CC(=O)N/N=C/c2ccccc2)c1=O | > 5.2 | > 625 | 121 | 341 | 67 |  |  | 
Cc1nc2ccccc2n(CC(=O)N/N=C/c2ccco2)c1=O | > 2.1 | > 645 | 301 | 103 | 17.2 |  |  | 
C/C(=N\NC(=O)Cn1c(=O)c(C)nc2ccccc21)c1cccc(Cl)c1 |  | > 543 | > 543 | > 1000 | 567 |  |  | 
Cc1nc2ccccc2n(CC(=O)NNC(=O)c2c(Cl)cccc2Cl)c1=O | 2.97 | 153 | 51.6 | 299 | 58.2 |  |  | 
Cc1nc2ccccc2n(CC(=O)N/N=C/c2ccc(N(C)C)cc2)c1=O | 2.2 | 355 | 159 | 331 | 64.3 |  |  | 
C/C(=N\NC(=O)Cn1c(=O)c(C)nc2ccccc21)c1ccccc1 | 8.9 | 491 | 54.9 | 99.9 | 9.39 |  |  | 
Cc1nc2ccccc2n(CC(=O)N/N=C/c2ccc([N+](=O)[O-])cc2)c1=O | > 7.7 | > 548 | 42.1 | 644 | 246 |  |  | 
Cc1nc2ccccc2n(CC(=O)NNC(=O)c2ccccc2)c1=O |  | > 595 | 273 |  | 187 |  |  | 
Cc1nc2ccccc2n(CC(=O)NN)c1=O |  | > 862 | > 862 | 257 | 98 |  |  | 
COc1cc(/C=N/NC(=O)Cn2c(=O)c(C)nc3ccccc32)cc(OC)c1OC | > 5.9 | > 488 | 83 | 57.6 | 223 |  |  | 
COc1ccc(/C=C/C(=O)N2C[C@@H](NC(=O)c3cccnc3)C[C@H]2C(=O)NO)cc1OC | > 13.8 | > 454 | 33 | 117 |  |  |  | 
O=C1Nc2ccc(Cl)cc2[C@@](C#CC2CC2)(C(F)(F)F)O1 [EFAVIRENZ] |  |  |  |  |  | 184 |  | 
Cc1cn([C@H]2C[C@H](N=[N+]=[N-])[C@@H](CO)O2)c(=O)[nH]c1=O [ZIDOVUDINE] | 589000 | 4680 | 0.00794 |  |  |  | 0.00152 | 0.00436
